Measurements as given in patent EP4613259A1, “PHARMACEUTICAL, DERMATOLOGICAL OR COSMETIC COMPOUNDS AND COMPOSITIONS FOR REDUCING MELANIN SYNTHESIS, STIMULATING TYPE I COLLAGEN PRODUCTION, SKIN DEPIGMENTATION AND/OR PROMOTING A SKIN ANTI-AGING EFFECT IN AN INDIVIDUAL OR ANIMAL, USES AND METHODS” (Chemyunion Ltda, priority 2022, dated 2024).
Where a SMILES comes first, the peptide text is derived from it. The star is where a group is joined. Palmitoyl = CCCCCCCCCCCCCCCC(=O)*

Experiments:
[1] = tested on: melanin synthesis in human skin fragments; assay: Inhibition of melanin synthesis in ex vivo human skin fragments (Fontana Masson staining, semi-quantification); assay type: cell-based; details: skin explants (n=5), 72h
Description: Example 1: Evaluation of inhibition of melanin synthesis in human skin fragments.
Skin explants (n=5), obtained from a surgical procedure performed by an ophthalmological plastic surgery clinic, were treated for 72h with a formulation containing the peptide SEQ ID No. 1 (Pal-Gln-His-Trp-Val-OH), (at 50 ppm or 100 ppm) and with the same formulation without the addition of the peptide (placebo).
After incubation with the test products as described above, the skin fragments were fixed in 4% paraformaldehyde (pH 7.4) for 24 hours. After fixation, the material was transferred to 30% sucrose solution for cryopreservation and then embedded in tissue freezing medium, followed by serial sections of approximately 10 µm thickness made by cryostat and collected directly on silanized glass slides. Then, the skin sections were stained by the Fontana Masson technique.
Subsequently, the slides were analyzed and recorded using an optical microscope coupled to a camera.

type I collagen = assay: Stimulation of type I collagen synthesis in ex vivo human skin fragments (immunofluorescence, semi-quantification); assay type: cell-based; details: skin explants (n=5)
Description: Example 2: Evaluation of collagen synthesis stimulation in human skin fragments.
Skin explants (n=5) obtained from a surgical procedure performed by the ophthalmologic plastic surgery clinic were treated for 72 h with a formulation containing the peptide SEQ ID No. 1 ( Pal - Gln - His- Trp - Val-OH ) (at 50 ppm or 100 ppm ) and with the same formulation without the addition of the peptide (placebo). After incubation with the test products as described above, the skin fragments were fixed in 4% paraformaldehyde (pH 7.4) for 24 h. After fixation, the material was transferred to a 30% sucrose solution for cryopreservation and then embedded in tissue freezing medium, followed by serial sections of approximately 10 µm thickness made by cryostat and collected directly on silanized glass slides. The skin sections were then subjected to the specific labeling process for type I collagen for subsequent immunofluorescence analysis; the records were obtained using a fluorescence optical microscope coupled to a photographic camera.

CCCCCCCCCCCCCCCC(=O)N[C@@H](CCC(N)=O)C(=O)N[C@@H](Cc1cnc[nH]1)C(=O)N[C@@H](Cc1c[nH]c2ccccc12)C(=O)N[C@H](C(=O)O)C(C)C [SEQ ID No. 1, Pal-Gln-His-Trp-Val-OH] (Palmitoyl-QHWV-OH)
reduces melanin production compared to the placebo group ([1]; 50 ppm peptide in formulation): 66%
inhibits pigment synthesis compared to the levels observed in the placebo group ([1]; 100 ppm peptide in formulation): 61%
stimulated collagen I production compared to the placebo group (type I collagen; 50 ppm peptide in formulation, 72h): 63%
increase in protein synthesis compared to the levels observed in the placebo group (type I collagen; 100 ppm peptide in formulation, 72 h, protein = type I collagen): 71%
